These are literature values, as cited in US10631556B2, “Method for conducing concentrated cannabis oil to be stable, emulsifiable and flavorless for use in hot beverages and resulting powderized cannabis oil” (Pivot Naturals, LLC., priority 2015, dated 2020).

For data set [1] the following is noted: inhalation.
Data set [2] concerns the target CYP 2C9 (Homo sapiens, UniProt P11712). The note with it: anecdotal online article.
For data set [3] the following is noted: mice, odor inhaled from ambient air for 1 hour.
Data set [4] deals with Mice. The note with it: odor inhaled from ambient air for 1 hour.
Data set [5] deals with Mice.

Chain of CYP 2C9 (P11712 whole entry): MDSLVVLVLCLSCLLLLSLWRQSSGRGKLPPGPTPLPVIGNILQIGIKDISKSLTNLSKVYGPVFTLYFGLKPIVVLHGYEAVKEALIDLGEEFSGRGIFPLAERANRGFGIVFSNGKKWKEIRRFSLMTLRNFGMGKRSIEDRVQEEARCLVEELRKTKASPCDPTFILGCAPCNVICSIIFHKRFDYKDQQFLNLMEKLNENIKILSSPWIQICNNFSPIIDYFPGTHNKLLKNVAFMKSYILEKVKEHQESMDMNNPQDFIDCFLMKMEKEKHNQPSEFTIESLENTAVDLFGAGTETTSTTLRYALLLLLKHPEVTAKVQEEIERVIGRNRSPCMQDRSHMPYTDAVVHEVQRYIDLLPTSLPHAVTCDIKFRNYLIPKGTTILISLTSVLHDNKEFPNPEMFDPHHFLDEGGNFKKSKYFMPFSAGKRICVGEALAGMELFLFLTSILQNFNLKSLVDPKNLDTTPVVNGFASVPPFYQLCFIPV

In the case of `C=C(C)[C@H]1CC=C(C)CC1` [Limonene], the human pulmonary uptake in data set [1] is on record as 70%. Take `O=C(/C=C/C=C/c1ccc2c(c1)OCO2)N1CCCCC1` [Piperine]: in data set [2], the “inhibition of CYP 2C9” value is “strongly”. Regarding `CCCCCc1cc(O)c2c(c1)OC(C)(C)[C@@H]1CCC(C)=C[C@@H]21` [THC, tetrahydrocannabinol], under “organic solvents, specifically lipids and alcohols”, the “solubility in most organic solvents” value is recorded as “good”. Also, the solubility in water result (water) is listed as “very low”. As for `C=CC(C)(O)CCC=C(C)C` (centres unmarked) [linalool], the serum concentration in data set [3] was 4.22 ng/mL. Further, in data set [4], the reduction in motility is 73%.

Turning to `C=CC(=C)CCC=C(C)C` [myrcene], in data set [5], the muscle relaxant effect entry is on record as “acted as a muscle relaxant”. Besides, in data set [5] (high doses), the barbiturate sleep time result is “potentiated barbiturate sleep time”. For the molecule pinene, in data set [1], the human pulmonary uptake was 60%. The serum concentration entry in data set [3] was “trace”. Besides, the “increase in mouse activity” value in data set [4] was 13.77%.
